The text below walks through data of ChEMBL document CHEMBL1156211, “Amide-based inhibitors of p38alpha MAP kinase. Part 1: discovery of novel N-pyridyl amide lead molecules” (Bioorg Med Chem Lett, 2010).

In the first assay the target is T1, Mitogen-activated protein kinase 14 (Homo sapiens, UniProt Q16539). In words: Inhibition of p38alpha assessed as inhibition of gamma-32p-ATP incorporation into biotin peptide substrate after 60 mins by scintillation counter.
T1 sequence (Q16539 whole entry): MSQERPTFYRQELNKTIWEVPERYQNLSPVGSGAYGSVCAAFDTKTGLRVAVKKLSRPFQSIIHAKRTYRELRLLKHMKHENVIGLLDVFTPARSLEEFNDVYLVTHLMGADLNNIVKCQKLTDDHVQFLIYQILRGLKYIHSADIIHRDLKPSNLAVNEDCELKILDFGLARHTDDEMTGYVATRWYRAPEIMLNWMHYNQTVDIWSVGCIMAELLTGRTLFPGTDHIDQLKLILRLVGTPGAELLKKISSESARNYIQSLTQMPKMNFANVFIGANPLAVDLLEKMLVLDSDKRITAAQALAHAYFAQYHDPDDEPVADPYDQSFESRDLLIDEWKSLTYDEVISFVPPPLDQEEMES
In general, IC50 refers to the midpoint of a concentration-inhibition curve. With `CC(=O)N(Cc1ccc(F)cc1)c1ccnc(N[C@@H](C)c2ccccc2)c1`, the IC50 is 408 nM.

In the case of `O=C(c1ccc2ccccc2c1)N(Cc1ccc(F)cc1)c1ccnc(NC2CCCCC2)c1`, the concentration for half-maximal inhibition (IC50) is 1110 nM.

`CC(C)Nc1cc(N(Cc2ccc(F)cc2)C(=O)c2ccc3ccccc3c2)ccn1`: the IC50 came out at 671 nM.

Take `C[C@H](Nc1cc(N(Cc2ccc(F)cc2)C(=O)c2ccccc2)ccn1)c1ccccc1`: the IC50 came out at 589 nM.

Regarding `C[C@@H](Nc1cc(N(Cc2ccc(F)cc2)C(=O)c2ccc3ccccc3c2)ccn1)c1ccccc1`, the half-maximal inhibitory concentration (IC50) stood at 7800 nM.

Regarding `O=C(c1ccc2ccccc2c1)N(Cc1ccc(F)cc1)c1ccncc1`, the IC50 worked out at 1260 nM.

Consider `C[C@H](Nc1cc(N(Cc2ccc(F)cc2)C(=O)N2CCC3C=CC=CC3C2)ccn1)c1ccccc1` (stereo not given in full), for which the IC50 was 1110 nM.

Take `CCN(C(=O)c1ccc2ccccc2c1)c1ccnc(N[C@@H](C)c2ccccc2)c1`: the IC50 is 313 nM.

As to `C[C@H](Nc1cc(N(Cc2ccc(F)cc2)C(=O)c2ccc3ccccc3c2)ccn1)c1ccccc1`, the 50% inhibitory concentration (IC50) worked out at 345 nM.

As for `O=C(c1ccc2ccccc2c1)N(Cc1ccc(F)cc1)c1ccnc(NCc2ccccc2)c1`, the IC50 was determined as 1220 nM.

Turning to `C[C@H](Nc1cc(N(Cc2ccc(F)cc2)S(=O)(=O)c2ccc3ccccc3c2)ccn1)c1ccccc1`, the IC50 came to 7540 nM.

Turning to `Nc1cc(N(Cc2ccc(F)cc2)C(=O)c2ccc3ccccc3c2)ccn1`, the half-inhibitory concentration (IC50) is 5080 nM.

In another assay the target is T1, Mitogen-activated protein kinase 14. In words: Inhibition of p38alpha assessed as inhibition of gamma-32p-ATP incorporation into biotin peptide substrate at 1 uM after 60 mins by scintillation counter.
One may read the inhibition as the change of the read-out against control, counted positive when it falls. `C[C@H](Nc1cc(CN(C(=O)c2ccc3ccccc3c2)c2ccc(F)cc2)ccn1)c1ccccc1`: the inhibition came out at 0%.

As to `O=C(c1ccc2ccccc2c1)N(Cc1ccncc1)c1ccc(F)cc1`, the inhibition came to 0%.

On to `C[C@H](Nc1cc(NCc2ccc(F)cc2)ccn1)c1ccccc1`, for which the inhibition was found to be 0%.
